Assay results taken from patent US20260284186A1, “[…] MODIFIERS FOR THE TREATMENT OF SUBJECTS WITH UNDER[…] SYSTEMS AND COMPOSITIONS THEREOF” (priority 2023, published 2026).

Tests used:
RBD-ACE2 interaction = test: ACE2-binding inhibitory activity of the induced antibodies; format: in vivo, Balb/c mice; conditions: sera after three administrations; FIG. 3
Text: FIG. 3. Inhibitory activity of the antibody response induced by the groups with the strongest anti-RBD response after three administrations, following the immunization schedule described in example 1. A) G2; B) G4; C) G6; D) G11; E) G12 and F) Monoclonal antibody (McAb) CBSSRBD-S.8 used as standard curve to plot the results in the five ELISA plates.
Thus, we studied the antibody response effect on the ACE2-binding inhibitory activity.
The resulting antibody response is capable of inhibiting the binding of the antigen to their cellular receptor ACE2, a process that resembles the interaction of the virus to their cellular receptor. This inhibitory effect is essential to ensure the strong antiviral effect of the immune response against an infectious agent/virus through the specific neutralizing activity. […] This functional aspect of the antibody response is linked to the increased quality of the same response in terms of avidity. […] The quality of the experiment was ensured with the use of a McAb in the standard curve of the five plates used in the study and the reproducibility of the inhibitory effect (FIG. 3F) as well as with the assessment of the ACE2 inhibitory binding in a group that received the placebo of CDA but no antigen ([…]).

multiple viruses = test: In vitro stimulation of cells with CDA or CDA/HBcAg, IFN induction and virus elimination, Example 14; format: cell-based
SARS-COV-2 RBD = test: Anti-RBD IgG response, CDA dose escalation, Example 13; format: in vivo, Balb/c mice
SARS and IAV = format: in vivo; conditions: BRM without antigen

SMILES: Nc1ncnc2c1ncn2[C@@H]1O[C@@H]2COP(=O)(O)O[C@H]3[C@@H](O)[C@H](n4cnc5c(N)ncnc54)O[C@@H]3COP(=O)(O)O[C@H]2[C@H]1O [CDA, cyclic bis(3′-5′) diadenylic acid]
- Inhibitory effect on RBD-ACE2 binding (RBD-ACE2 interaction): strong inhibitory effect
- Stimulatory effects and type I / type 2 IFN induction (multiple viruses; in vitro stimulation of cells, synergy in vivo): enhancement of different channels of stimulatory effects
- Elimination of viruses in vitro (multiple viruses; multiple viruses): in vitro elimination of multiple viruses
- Dose of CDA inducing the strongest immune response (SARS-COV-2 RBD; RBD at 50 μg dose (1 mg/mL)): 5 µg
- Optimal dose of CDA per mice (SARS-COV-2 RBD; with 12.5 μg of RBD): 10 µg
- Antibody response against the viral antigens after in vivo treatment (SARS and IAV): high avidity antibody response
- Viral titers of SARS and IAV (SARS and IAV; acutely infected subjects and in vitro infected & treated cells, before or after infection): quantitative reduction of the viral titers
